Legend:
[1] = tested on: control littermates (CL) of Cor26 CRH mice; assay: REMS levels (EEG/EMG sleep recording) in control littermates of the Cor26 CRH line; details: 50 mg/kg/d via drinking water
Procedure: (§1) Experiments were conducted with two different mouse lines of excessive central CRH secretion and their respective control littermates (CL). Mice of the CRH-COE^CNS line are characterised by CRH-overexpression within the whole CNS, whereas mice of the Cor26 CRH line display a CRH-overexpression specific to CRH-ergic neurons of the CNS. Three different CRHR1 antagonists were tested. […] In all cases, animals were left to recover from EEG/EMG-electrode implantation for two weeks, after which two days of baseline recording were initiated. Treatment with CRH-R1 antagonist or respective vehicle control commenced thereafter for five consecutive days. Antagonists were applied through the drinking water at a daily dose of 50 mg/kg body weight. EEG and EMG recordings were manually scored as wake, non-REMS (NREMS), and REMS in four second epochs by an experienced evaluator.

Cor26 CRH mice = assay: REMS levels (EEG/EMG sleep recording) in CRH-overexpressing Cor26 CRH mice; details: 50 mg/kg/d via drinking water
Procedure: as §1

CRH-COE^CNS mice = assay: REMS activity (EEG/EMG sleep recording) in CRH-overexpressing CRH-COE^CNS mice; details: 50 mg/kg/d via drinking water; for REMS activity: treatment days vs baseline, effect beginning with treatment day two
Procedure: as §1

[2] = tested on: control littermates (CL) of CRH-COE^CNS mice; assay: REMS activity (EEG/EMG sleep recording) in control littermates of the CRH-COE^CNS line; details: 50 mg/kg/d via drinking water
Procedure: as §1

[3] = tested on: mice overexpressing CRH in the forebrain; details: Kimura et al., Mol. Psychiatry 2010; cited from earlier work

In the case of `CCC(CC)Oc1cc(C)nc(Oc2c(C)cc(C)cc2C)c1C` [CP-316,311], the REMS levels [1] is reported as “no significant effect”, the REMS levels (Cor26 CRH mice; 50 mg/kg/day) is reported as “apparently seemed weak” and the REMS levels (Cor26 CRH mice; listed as CP-316311, 50 mg/kg/day) is reported as “suppressed”. For the same compound, the “REMS levels, area under the curve (AUC) within the light period” value (Cor26 CRH mice; baseline vs treatment day three, P=0.006) was “significant decrease”.
With `COCC(COC)Nc1nc(C)nc2c(-c3ccc(Cl)cc3Cl)c(C)nn12` [DMP-696] the “REMS suppression relative to baseline REMS-levels of CL” value (CRH-COE^CNS mice) was “never exceeded baseline REMS-levels of CL”, the “treatment day of strongest suppression of REMS activity” value (CRH-COE^CNS mice) was “treatment day three” and the REMS activity (CRH-COE^CNS mice; 50 mg/kg/day) was “significant decrease in REMS activity”. For the same compound, the REMS activity (CRH-COE^CNS mice; listed as DMP696, 50 mg/kg/day) was “suppressed”, the REMS activity [2] was “only a mild suppression of REMS” and the REM enhancement [3] was “could reverse the REM enhancement”.
